Results filed as inconclusive are left out. Calls of active or inactive are those of the source.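 The calls were made as follows: active = compounds lowering the luciferase signal with a fitted half-maximal dose at most twice their top valid dose (cut at about 30 µM in these data); inconclusive = flat fits with moderate signal loss, or poor fits; inactive = the rest.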
System: Clone20 osteoblast Shn3 3'UTR firefly luciferase, 24 h
Assay: Shn3 3'UTR reporter inhibitors, dose response, cell-based, Clone20 osteoblasts, luminescence, dry powder, set 2 (AID 743417)

Compound	AC50
COc1ccc(-c2ccc(Nc3ccc(S(=O)(=O)N4CCCC4)cc3)nn2)cc1OC	20100 nM
CCOC(=O)C1CCN(C(=O)c2ccc(OCC(=O)Nc3cccc(C(F)(F)F)c3)c(OC)c2)CC1	1750 nM
CCOc1ccc(/C=C/[N+](=O)[O-])c2ccccc12	4270 nM
CCOc1ccc(-n2c(-c3ccccc3)c[n+]3c2CCC3)cc1	526 nM
CCCc1ccc(C(=O)NNc2cc(Cl)ccc2Cl)cc1	2590 nM
Cc1nc2ccccn2c1C(=O)NC1CCCc2ccccc21 (stereo unspecified)	2470 nM
Cc1ccc(-n2cc(CNCCCn3ccnc3C)c(-c3ccc(F)cc3)n2)cc1	20600 nM
COc1ccccc1OCC(=O)c1[nH]c(C)c(C(C)=O)c1C	3350 nM
CCOC(=O)c1oc2ccc(S(=O)(=O)n3nc(-c4ccc(OC)cc4)cc3N)cc2c1C	1990 nM
Cc1cc(C)n2nc(SCC(=O)c3cc(C)n(-c4cc(C)on4)c3C)nc2n1	2460 nM
Oc1c(CN2CCOCC2)cc(COCc2ccccc2)c2cccnc12	1280 nM
O=c1[nH]c2ccccc2n1C1CCN(C(CCc2ccccc2)c2nnnn2Cc2ccccc2)CC1 (stereo unspecified)	1230 nM
COc1cccc(CN(C)C(=O)c2cccc(S(=O)(=O)N3CCN(Cc4ccccc4)CC3)c2)c1OC	4940 nM
Nc1nc(N)c2cc(S(=O)(=O)c3ccc4ccccc4c3)ccc2n1	3370 nM
CC[n+]1c(/C=C/Nc2ccccc2)sc2ccccc21	2060 nM
Cc1ccc(Nc2c(-c3ccccn3)nc3cc(C)ccn23)cc1	1360 nM
COc1ccc(Nc2nc(N3CCCCC3)c3ccccc3n2)cc1	2110 nM
CCOC(=O)c1ccc(NC(=O)c2nc[nH]c2C(=O)NCCNC(=O)c2[nH]cnc2C(=O)Nc2ccc(C(=O)OCC)cc2)cc1	5510 nM
O=C(C1=C[C@@H](C2CC2)C[C@@H](OCCCCO)O1)N1CCN(Cc2ccccc2)CC1	> 70000 nM (inactive)
O=C(Nc1nc2ccccc2s1)C1CCN(S(=O)(=O)c2cc([N+](=O)[O-])ccc2Cl)CC1	3070 nM
Cc1c(Cl)sn(-c2ccc(Cl)cc2)c1=O	728 nM

Compound	AC50
CCOc1cc(CNCCc2ccc(S(N)(=O)=O)cc2)ccc1OCc1ccccc1	2440 nM
CC(C)(O)C#Cc1ccc([C@@H]2C[C@H]3CN(c4ccccc4)C(=O)[C@]34CCCN24)s1	4930 nM
Cc1onc(-c2ccccc2Cl)c1C(=O)N(C)C1CCCCC1	2740 nM
Cc1ccc(C(=O)NC2CCCc3c2cnn3-c2ccc(F)cc2F)cn1 (stereo unspecified)	921 nM
O=C(c1ccc(S(=O)(=O)c2ccccc2Cl)c([N+](=O)[O-])c1)N1CCN(Cc2ccccc2)CC1	5770 nM
COc1ccccc1NC(=O)c1nc(S(=O)(=O)Cc2ccccc2)ncc1Cl	492 nM
Cc1ccnc(SCC(=O)Nc2sc3c(c2C#N)CCCC3)n1	955 nM
C=C[C@]1(C)C=C2C(=O)[C@@]3(O)OC(=O)[C@@]4(CCCC(C)(C)[C@H]34)[C@@]2(O)CC1	4980 nM
COc1ccc(C)cc1NS(=O)(=O)c1ccc(-c2cnc(C3CC3)o2)cc1	3760 nM
Cc1cc(C2=NNC(=NC3CC3)SC2)c(C)n1-c1ccccc1F	< 260 nM
CN(Cc1ccccc1)C(=O)c1cccc(NC(=O)Cc2ccc([N+](=O)[O-])cc2)c1	16800 nM
CCCN(CCC)S(=O)(=O)c1ccc(C(=O)Nc2nnc(-c3cc(OC)cc(OC)c3)o2)cc1	2640 nM
CCCCCCN1C[C@H](n2cc(-c3ccc(F)cc3)nn2)[C@@H](O)C[C@@H]1c1ccc(Cl)cc1	10300 nM
O=C(Nc1ccc([N+](=O)[O-])cc1)Nc1ccc(OC(F)F)c(Cl)c1	3590 nM
Cc1sc2ncnc(NC3CCN(Cc4ccccc4)CC3)c2c1C	1020 nM
CN(CCO)c1cc(Sc2nc3ccccc3s2)c2nonc2c1[N+](=O)[O-]	1550 nM
CCc1ccccc1NC(=O)COC(=O)c1c(C)nsc1NC	2480 nM
Cc1cc(C)n2nc(SCc3cccc(S(=O)(=O)N(C)C)c3)nc2n1	14000 nM
Cc1ccc(NC(=O)Cc2nn(C)c(=O)c3ccccc23)cc1F	730 nM
Cc1cc(F)ccc1S(=O)(=O)Nc1ccccc1C(=O)Nc1ccccc1-c1nc2ccccc2[nH]1	12100 nM

Source: PubChem BioAssay AID743417 (Broad Institute, 2014)
